Reference: patent US10988459B2 (priority 2015, dated 2021)

Biological target: human RIP1 kinase domain (2-375) (Homo sapiens (Human), UniProt Q13546)
Test: biochemical
Format: biochemical
Settings: Table 1; apparent Ki (Morrison tight-binding fit); 50 nM RIP1 kinase domain, 50 uM ATP, 2 hours incubation; read-out: RIP1 Ki
Method in brief: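 Ki^app comes from Morrison tight-binding fits of fractional activity versus compound concentration. Activity was read as ADP production, via tracer displacement lowering fluorescence polarization (633 nm laser). Conditions: 2 h, 50 nM insect-cell-expressed enzyme, 50 uM ATP, 30 mM MgCl2, 1 mM DTT, 0.5% DMSO, pH 7.5 Hepes.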

Sequence of human RIP1 kinase domain (2-375) (Q13546 2-375): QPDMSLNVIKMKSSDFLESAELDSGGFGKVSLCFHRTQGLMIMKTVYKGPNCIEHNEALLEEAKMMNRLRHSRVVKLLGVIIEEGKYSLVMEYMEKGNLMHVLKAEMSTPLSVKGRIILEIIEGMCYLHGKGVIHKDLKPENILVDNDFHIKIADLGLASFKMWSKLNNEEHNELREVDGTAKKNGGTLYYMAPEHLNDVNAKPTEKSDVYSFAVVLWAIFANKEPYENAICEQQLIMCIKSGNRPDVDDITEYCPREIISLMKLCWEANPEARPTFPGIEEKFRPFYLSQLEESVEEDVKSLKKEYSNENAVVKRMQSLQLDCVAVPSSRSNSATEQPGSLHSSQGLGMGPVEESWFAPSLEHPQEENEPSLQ

Structure (SMILES)	Ki
CN1C(=O)[C@@H](NC(=O)c2n[nH]c3c2CN(CC(F)(F)F)CC3)COc2ccccc21 [Example 5, (S)—N-(5-methyl-4-oxo-2,3,4,5-tetrahydrobenzo[b][1,4]oxazepin-3-yl)-5-(2,2,2-trifluoroethyl)-4,5,6,7-tetrahydro-1H-pyrazolo[4,3-c]pyridine-3-carboxamide]	1500 nM
CC1CCc2n[nH]c(C(=O)N[C@H]3CCc4cc(Cl)ccc4NC3=O)c2C1 (stereo partly drawn) [Example 46, N-((S)-7-chloro-2-oxo-2,3,4,5-tetrahydro-1H-benzo[b]azepin-3-yl)-5-methyl-4,5,6,7-tetrahydro-2H-indazole-3-carboxamide]	135 nM
CC1Cc2c(C(=O)N[C@H]3COc4[nH]ncc4NC3=O)n[nH]c2CO1 (stereo partly drawn) [Example 25, 5-methyl-N—((S)-5-oxo-4,5,6,7-tetrahydro-1H-pyrazolo[3,4-b][1,4]oxazepin-6-yl)-1,4,5,7-tetrahydropyrano[3,4-c]pyrazole-3-carboxamide]	> 10000 nM

Same assay, conditions: Table 5; apparent Ki (Morrison tight-binding fit); 50 nM RIP1 kinase domain, 50 uM ATP, 2 hours incubation; read-out: Ki

Ki	Structure (SMILES)
4 nM	CN1C(=O)[C@@H](NC(=O)c2cc3c(-c4ccccc4F)cccn3n2)COc2ccccc21 [Example 708, 4-(2-fluorophenyl)-N-[(3S)-5-methyl-4-oxo-2,3-dihydro-1,5-benzoxazepin-3-yl]pyrazolo[1,5-a]pyridine-2-carboxamide]
10 nM	CN1C(=O)[C@@H](NC(=O)c2cc3c(cn2)CO[C@@]3(C)C(F)(F)F)COc2ccccc21 [Example 744, (1R)-1-methyl-N-[(3S)-5-methyl-4-oxo-2,3-dihydro-1,5-benzoxazepin-3-yl]-1-(trifluoromethyl)-3H-furo[3,4-c]pyridine-6-carboxamide]

Same assay, conditions: human RIP1 kinase domain (2-375), 50 uM ATP, 2 hours incubation, Transcreener ADP assay; read-out: RIP1 Ki

Ki	Structure (SMILES)
232 nM	O=C(NC1CCn2ncc3c2N(CCO3)C1=O)c1ncn(Cc2ccccc2)n1 (stereo not drawn) [Example 198, 1-benzyl-N-(6-oxo-4,5,6,7,8,9-hexahydro-3-oxa-1,5a,9a-triazabenzo[cd]azulen-7-yl)-1H-1,2,4-triazole-3-carboxamide]
766 nM	O=C(NC1CCn2ncc3c2N(CCO3)C1=O)c1nnc(Cc2ccccc2)[nH]1 (stereo not drawn) [Example 199, 5-benzyl-N-(6-oxo-4,5,6,7,8,9-hexahydro-3-oxa-1,5a,9a-triazabenzo[cd]azulen-7-yl)-4H-1,2,4-triazole-3-carboxamide]
544 nM	CN1C(=O)C(NC(=O)c2nnc(Cc3ccccc3)[nH]2)CCn2nc3c(c21)CS(=O)(=O)C3 (stereo not drawn) [Example 141, 5-benzyl-N-(1-methyl-9,9-dioxido-2-oxo-1,2,3,4,5,10-hexahydro-8H-thieno[3′,4′:3,4]pyrazolo[1,5-a][1,3]diazepin-3-yl)-4H-1,2,4-triazole-3-carboxamide]
1800 nM	CN1C(=O)C(NC(=O)c2n[nH]c3c2C[C@@H](C(F)(F)F)CC3)CCn2nc3c(c21)CCCC3 (stereo partly drawn) [Example 137, (5S)—N-(1-methyl-2-oxo-2,3,4,5,8,9,10,11-octahydro-1H-[1,3]diazepino[1,2-b]indazol-3-yl)-5-(trifluoromethyl)-4,5,6,7-tetrahydro-1H-indazole-3-carboxamide]
57.5 nM	CN1C(=O)[C@@H](NC(=O)c2ncn3ccc(C(F)(F)F)nc23)COc2ccccc21 [Example 193, (S)—N-(5-methyl-4-oxo-2,3,4,5-tetrahydrobenzo[b][1,4]oxazepin-3-yl)-2-(trifluoromethyl)imidazo[1,5-a]pyrimidine-8-carboxamide]
124 nM	CN1C(=O)C(NC(=O)c2ncn(Cc3ccccc3)n2)CCCn2cncc21 (stereo not drawn) [Example 103, 1-benzyl-N-(1-methyl-2-oxo-1,2,3,4,5,6-hexahydroimidazo[1,5-a][1,3]diazocin-3-yl)-1H-1,2,4-triazole-3-carboxamide]
167 nM	CCC1(C)Cc2c(C(=O)N[C@H]3COc4ccccc4N(C)C3=O)n[nH]c2CO1 (stereo partly drawn) [Example 194, 5-ethyl-5-methyl-N-((S)-5-methyl-4-oxo-2,3,4,5-tetrahydrobenzo[b][1,4]oxazepin-3-yl)-1,4,5,7-tetrahydropyrano[3,4-c]pyrazole-3-carboxamide]
19.3 nM	CN1C(=O)[C@@H](NC(=O)c2cc3c(cn2)CO[C@]32CCOC2)COc2ccccc21 [Example 169, (R)-N-((S)-5-methyl-4-oxo-2,3,4,5-tetrahydrobenzo[b][1,4]oxazepin-3-yl)-4,5-dihydro-2H,3′H-spiro[furan-3,1′-furo[3,4-c]pyridine]-6′-carboxamide]
825 nM	CCn1nc(C(=O)N[C@H]2COc3ccccc3N(C)C2=O)c2c1CC[C@H](C(F)(F)F)C2 (single isomer, unassigned) [Example 185]
73.6 nM	CN1C(=O)C(NC(=O)c2ncn(Cc3ccccc3)n2)CCn2nc(C3CC3(F)F)cc21 (stereo not drawn) [Example 134, 1-benzyl-N-(2-(2,2-difluorocyclopropyl)-4-methyl-5-oxo-5,6,7,8-tetrahydr-4H-pyrazolo[1,5-a][1,3]diazepin-6-yl)-1H-1,2,4-triazole-3-carboxamide]
262 nM	CC1CCn2cnc(C(=O)N[C@H]3COc4ccccc4N(C)C3=O)c2C1 (stereo partly drawn) [Example 190]
573 nM	CN1C(=O)[C@@H](NC(=O)c2n[nH]c3c2CC(C)(c2ccccc2)OC3)COc2ccccc21 (stereo partly drawn) [Example 212, 5-methyl-N—((S)-5-methyl-4-oxo-2,3,4,5-tetrahydrobenzo[b][1,4]oxazepin-3-yl)-5-phenyl-1,4,5,7-tetrahydropyrano[3,4-c]pyrazole-3-carboxamide]

Same assay, conditions: human RIP1 kinase domain (2-375), Transcreener ADP assay, 50 uM ATP, 2 hours incubation; read-out: RIP1 Ki

Ki	Structure (SMILES)
21.7 nM	CN1C(=O)[C@@H](NC(=O)c2ncn3cnc(C(F)(F)F)cc23)COc2ccccc21 [Example 230, (S)—N-(5-methyl-4-oxo-2,3,4,5-tetrahydrobenzo[b][1,4]oxazepin-3-yl)-7-(trifluoromethyl) imidazo[1,5-c]pyrimidine-1-carboxamide]
1370 nM	CN1C(=O)[C@@H](NC(=O)c2cc(C3(O)CCC3)ccn2)COc2ccccc21 [Example 327, (S)-4-(1-hydroxycyclobutyl)-N-(5-methyl-4-oxo-2,3,4,5-tetrahydrobenzo[b][1,4]oxazepin-3-yl)picolinamide]

Same assay, conditions: tight-binding apparent inhibition constant; human RIP1 kinase domain (2-375) 50 nM, 50 uM ATP, 2 hours; read-out: Ki

Ki	Structure (SMILES)
71 nM	CN1C(=O)[C@@H](NC(=O)c2nc3n(n2)[C@H](c2ccccc2)CC3)COc2ccccc21 (single isomer, unassigned) [Example 613]
610 nM	CN1C(=O)[C@@H](NC(=O)c2nc3n(n2)[C@H](c2ccccc2F)CC3)CCn2nccc21 [Example 669, (5S)-5-(2-fluorophenyl)-N-[(6S)-4-methyl-5-oxo-7,8-dihydro-6H-pyrazolo[1,5-a][1,3]diazepin-6-yl]-6,7-dihydro-5H-pyrrolo[1,2-b][1,2,4]triazole-2-carboxamide]
4.67 nM	CC(C)[C@@H]1CCCc2nc(C(=O)N[C@H]3COc4cc(F)cc(F)c4NC3=O)nn21 (single isomer, unassigned) [Example 444]
34.3 nM	O=C(N[C@H]1CCc2cc(F)cc(F)c2NC1=O)c1nc2cccc(C(F)(F)F)n2n1 [Example 418, (S)—N-(7,9-difluoro-2-oxo-2,3,4,5-tetrahydro-1H-benzo[b]azepin-3-yl)-5-(trifluoromethyl)-[1,2,4]triazolo[1,5-a]pyridine-2-carboxamide]
100 nM	CN1C(=O)[C@@H](NC(=O)c2ncn(CC3(C)CCC3)n2)CCn2nc(C3CC3)cc21 [Example 561]
24 nM	CN1C(=O)[C@@H](NC(=O)c2ncn(Cc3ccccc3)n2)CCn2nc(C3(F)CC3)cc21 [Example 570, 1-benzyl-N-(6S)-2-(1-fluorocyclopropyl)-4-methyl-5-oxo-7,8-dihydro-6H-pyrazolo[1,5-a][1,3]diazepin-6-yl-1,2,4-triazole-3-carboxamide]
14.8 nM	CN1C(=O)[C@@H](NC(=O)c2nc3cccc(-c4ccccc4F)n3n2)CCn2nccc21 [Example 386, (S)-5-(2-fluorophenyl)-N-(4-methyl-5-oxo-5,6,7,8-tetrahydro-4H-pyrazolo[1,5-a][1,3]diazepin-6-yl)-[1,2,4]triazolo[1,5-a]pyridine-2-carboxamide]
45 nM	CN1C(=O)[C@@H](NC(=O)c2ncn(Cc3cccc(Cl)c3)n2)CCn2nc(C(F)(F)F)cc21 [Example 533]
10.4 nM	CN1C(=O)[C@@H](NC(=O)c2ncc3cnn(C(F)(F)F)c3n2)COc2ccccc21 [Example 360, N-[(3S)-5-methyl-4-oxo-2,3-dihydro-1,5-benzoxazepin-3-yl]-1-(trifluoromethyl)pyrazolo[3,4-d]pyrimidine-6-carboxamide]
394 nM	CCC1CCc2nc(C(=O)N[C@H]3CCn4nccc4N(C)C3=O)nn21 (stereo partly drawn) [Example 351, 5-ethyl-N-[(6S)-4-methyl-5-oxo-7,8-dihydro-6H-pyrazolo[1,5-a][1,3]diazepin-6-yl]-6,7-di hydro-5H-pyrrolo[1,2-b][1,2,4]triazole-2-carboxamide]
36 nM	Cc1ncn2c1N(C)C(=O)[C@H](NC(=O)c1ncn(Cc3ccccc3)n1)CC2 [Example 505, 1-benzyl-N-(3R)-1,9-dimethyl-2-oxo-4,5-dihydro-3H-imidazo[1,5-a][1,3]diazepin-3-yl-1,2,4-triazole-3-carboxamide]
160 nM	CN1C(=O)[C@@H](NC(=O)c2ncc3cnn(-c4ccccn4)c3n2)COc2ccccc21 [Example 631, 1-(2-pyridyl)-N-[(3S)-5-methyl-4-oxo-2,3-dihydro-1,5-benzoxazepin-3-yl]pyrazolo[3,4-d]pyrimidine-6-carboxamide]
6.4 nM	CN1C(=O)[C@@H](NC(=O)c2nnn(Cc3ccccc3)n2)CCn2nc(C3CC3)cc21 [Example 542]
57 nM	Cc1cc2n(n1)CC[C@H](NC(=O)c1ncc3cnn(-c4ccccc4)c3n1)C(=O)N2C [Example 540, 1-phenyl-N-[(6S)-2,4-dimethyl-5-oxo-7,8-dihydro-6H-pyrazolo[1,5-a][1,3]diazepin-6-yl]pyrazolo[3,4-d]pyrimidine-6-carboxamide]
